Assay results reported in patent US11254686B1 (Corvus Pharmaceuticals, Inc., priority 2017, dated 2022).

How the values were obtained:
[1] = biological target: adenosine A2B receptor (Homo sapiens (Human), UniProt P29275); test: Adenosine receptor activity assay (Table 1), A2B activity; assay type: biochemical; conditions: for Ratio: A2A activity to the A2B activity, A2A/A2B; for IC50: read-out: Ave A2B cAMP IC50
[2] = biological target: adenosine A2A receptor (Homo sapiens (Human), UniProt P29274); test: Adenosine receptor activity assay (Table 1), A2A activity; assay type: biochemical; conditions: read-out: Ave A2A cAMP IC50
adenosine A2A receptor, sequence (P29274 whole entry): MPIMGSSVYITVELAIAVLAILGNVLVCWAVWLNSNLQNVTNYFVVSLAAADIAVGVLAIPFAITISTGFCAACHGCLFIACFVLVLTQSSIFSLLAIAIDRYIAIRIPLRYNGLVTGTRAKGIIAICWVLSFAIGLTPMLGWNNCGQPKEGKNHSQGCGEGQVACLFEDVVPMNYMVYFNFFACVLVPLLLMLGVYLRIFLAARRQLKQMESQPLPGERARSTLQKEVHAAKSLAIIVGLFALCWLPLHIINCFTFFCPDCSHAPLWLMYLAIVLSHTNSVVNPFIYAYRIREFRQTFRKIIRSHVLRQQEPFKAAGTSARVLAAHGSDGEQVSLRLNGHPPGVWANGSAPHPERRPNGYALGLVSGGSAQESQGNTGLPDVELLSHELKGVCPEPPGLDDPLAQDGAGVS

adenosine A2B receptor, sequence (P29275 whole entry): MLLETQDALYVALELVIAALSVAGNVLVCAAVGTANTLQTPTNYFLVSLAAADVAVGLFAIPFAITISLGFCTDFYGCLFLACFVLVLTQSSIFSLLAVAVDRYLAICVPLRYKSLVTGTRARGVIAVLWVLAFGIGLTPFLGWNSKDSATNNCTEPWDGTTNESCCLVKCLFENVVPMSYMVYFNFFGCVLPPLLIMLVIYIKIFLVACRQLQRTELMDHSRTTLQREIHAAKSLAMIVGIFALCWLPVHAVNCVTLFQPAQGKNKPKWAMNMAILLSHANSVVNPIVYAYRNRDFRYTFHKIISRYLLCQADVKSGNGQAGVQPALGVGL

SMILES	Ratio [1]	IC50 [1] [nM]	IC50 [2] [nM]
C[C@H](Nc1nc(C(=O)NCCC2CCN(C(=O)OC(C)(C)C)C2)c2sccc2n1)c1ccccn1 (stereo partly drawn) [Example Z425, tert-Butyl 3-(2-(2-(((S)-1-(pyridin-2-yl)ethyl)amino)thieno[3,2-d]pyrimidine-4-carboxamido)ethyl)pyrrolidine-1-carboxylate]	0.82	100 to 500	50 to 100
C[C@H](Nc1nc(C(=O)NCCC2CCNC2)c2sccc2n1)c1ccccn1 (stereo partly drawn) [Example Z431, 2-(((S)-1-(Pyridin-2-yl)ethyl)amino)-N-(2-(pyrrolidin-3-yl)ethyl)thieno[3,2-d]pyrimidine-4-carboxamide]	37.04	100 to 500	> 500
C[C@H](Nc1nc(C(=O)NCCC2CNC2)c2sccc2n1)c1ccccn1 [Example Z432, (S)—N-(2-(Azetidin-3-yl)ethyl)-2-((1-(pyridin-2-yl)ethyl)amino)thieno[3,2-d]pyrimidine-4-carboxamide]	57.47	100 to 500	> 500
COc1ccc(CNc2nc(C(=O)NC3CCC3)c3sccc3n2)cn1 [Example Z434, N-Cyclobutyl-2-(((6-methoxypyridin-3-yl)methyl)amino)thieno[3,2-d]pyrimidine-4-carboxamide]	0.08	> 500	50 to 100
COc1ccc(CNc2nc(C(=O)NCc3cccnc3)c3sccc3n2)cn1 [Example Z436, 2-(((6-Methoxypyridin-3-yl)methyl)amino)-N-(pyridin-3-ylmethyl)thieno[3,2-d]pyrimidine-4-carboxamide]	0.15	> 500	100 to 500
COc1cccc(CCNC(=O)c2nc(N[C@@H](C)c3ccccn3)nc3ccsc23)c1 [Example Z437, (S)—N-(3-Methoxyphenethyl)-2-((1-(pyridin-2-yl)ethyl)amino)thieno[3,2-d]pyrimidine-4-carboxamide]		100 to 500	100 to 500
CCOc1ccc(CNc2nc(C(=O)NCCc3cccc(O)c3)c3sccc3n2)cn1 [Example Z439, 2-(((6-Ethoxypyridin-3-yl)methyl)amino)-N-(3-hydroxyphenethyl)thieno[3,2-d]pyrimidine-4-carboxamide]	0.29	> 500	100 to 500
CO[C@H]1CCN(C(=O)c2nc(N[C@@H](C)c3ccccn3)nc3c(C)csc23)C1 [Example Z440, ((S)-3-Methoxypyrrolidin-1-yl)(7-methyl-2-(((S)-1-(pyridin-2-yl)ethyl)amino)thieno[3,2-d]pyrimidin-4-yl)methanone]	1.91	100 to 500	100 to 500
CCO[C@H]1CCN(C(=O)c2nc(N[C@@H](C)c3ccccn3)nc3ccsc23)C1 [Example Z442, ((S)-3-Ethoxypyrrolidin-1-yl)(2-(((S)-1-(pyridin-2-yl)ethyl)amino)thieno[3,2-d]pyrimidin-4-yl)methanone]	2.19	100 to 500	100 to 500
COc1cccc(CCNC(=O)c2nc(N[C@@H](C)c3ccccn3)nc3c(C)csc23)c1 [Example Z444, (S)—N-(3-Methoxyphenethyl)-7-methyl-2-((1-(pyridin-2-yl)ethyl)amino)thieno[3,2-d]pyrimidine-4-carboxamide]	0.35	100 to 500	50 to 100
C[C@H](Nc1nc(C(=O)NCC2CCN(CCc3ccccc3)CC2)c2sccc2n1)c1ccccn1 [Example Z446, (S)—N-((1-Phenethylpiperidin-4-yl)methyl)-2-((1-(pyridin-2-yl)ethyl)amino)thieno[3,2-d]pyrimidine-4-carboxamide]	0.56	> 500	> 500
Cc1csc2c(C(=O)NCCc3cccc(O)c3)nc(N[C@@H](C)c3ccccn3)nc12 [Example Z447, (S)—N-(3-Hydroxyphenethyl)-7-methyl-2-((1-(pyridin-2-yl)ethyl)amino)thieno[3,2-d]pyrimidine-4-carboxamide]	1.23	50 to 100	50 to 100
COc1ncccc1CNC(=O)c1nc(N[C@@H](C)c2ccccn2)nc2ccsc12 [Example Z449, (S)—N-((2-Methoxypyridin-3-yl)methyl)-2-((1-(pyridin-2-yl)ethyl)amino)thieno[3,2-d]pyrimidine-4-carboxamide]	0.91	> 500	> 500
C[C@H](Nc1nc(C(=O)NCCc2ccc(C(=O)O)cc2)c2sccc2n1)c1cncc(F)c1 [Example Z452, (S)-4-(2-(2-((1-(5-Fluoropyridin-3-yl)ethyl)amino)thieno[3,2-d]pyrimidine-4-carboxamido)ethyl)benzoic acid]	19.85	100 to 500	> 500
CCOc1ccc(CNc2nc(C(=O)N3CCC3)c3sccc3n2)cn1 [Example Z453, Azetidin-1-yl(2-(((6-ethoxypyridin-3-yl)methyl)amino)thieno[3,2-d]pyrimidin-4-yl)methanone]	0.43	100 to 500	100 to 500

The remaining lines, values ahead:

Ratio [1]	IC50 [1] [nM]	IC50 [2] [nM]	SMILES
1.46	50 to 100	50 to 100	C[C@H](Nc1nc(C(=O)NCCC2CCCC2)c2sccc2n1)c1ccccn1 [Example Z424, (S)—N-(2-Cyclopentylethyl)-2-((1-(pyridin-2-yl)ethyl)amino)thieno[3,2-d]pyrimidine-4-carboxamide]
3.47	50 to 100	100 to 500	C[C@H](Nc1nc(C(=O)NCCC2CN(C(=O)OC(C)(C)C)C2)c2sccc2n1)c1ccccn1 [Example Z426, tert-Butyl (S)-3-(2-(2-((1-(pyridin-2-yl)ethyl)amino)thieno[3,2-d]pyrimidine-4-carboxamido)ethyl)azetidine-1-carboxylate]
2.65	10 to 50	50 to 100	CCO[C@@H]1CCN(C(=O)c2nc(N[C@@H](C)c3ccccn3)nc3ccsc23)C1 [Example Z438, ((R)-3-Ethoxypyrrolidin-1-yl)(2-(((S)-1-(pyridin-2-yl)ethyl)amino)thieno[3,2-d]pyrimidin-4-yl)methanone]
1.21	10 to 50	10 to 50	CO[C@@H]1CCN(C(=O)c2nc(N[C@@H](C)c3ccccn3)nc3c(C)csc23)C1 [Example Z441, ((R)-3-Methoxypyrrolidin-1-yl)(7-methyl-2-(((S)-1-(pyridin-2-yl)ethyl)amino)thieno[3,2-d]pyrimidin-4-yl)methanone]
0.44	50 to 100	10 to 50	Cc1csc2c(C(=O)NCc3ccccc3)nc(N[C@@H](C)c3ccccn3)nc12 [Example Z443, (S)—N-Benzyl-7-methyl-2-((1-(pyridin-2-yl)ethyl)amino)thieno[3,2-d]pyrimidine-4-carboxamide]
9.62	50 to 100	> 500	C[C@H](Nc1nc(C(=O)NCCc2cccc(C#N)c2)c2sccc2n1)c1cncc(F)c1 [Example Z445, (S)—N-(3-Cyanophenethyl)-2-((1-(5-fluoropyridin-3-yl)ethyl)amino)thieno[3,2-d]pyrimidine-4-carboxamide]
38.75	10 to 50	> 500	C[C@H](Nc1nc(C(=O)NCCc2ccc(S(N)(=O)=O)cc2)c2sccc2n1)c1cncc(F)c1 [Example Z454, (S)-2-((1-(5-Fluoropyridin-3-yl)ethyl)amino)-N-(4-sulfamoylphenethyl)thieno[3,2-d]pyrimidine-4-carboxamide]
